Results taken from PubChem BioAssay (NCI).
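Where inhibition never reached the appropriate level, the endpoint shown equals the highest concentration tested. Otherwise, values were interpolated linearly from a five-concentration, 48-hour dose response in 96-well plates. TGI denotes the concentration required for complete inhibition of growth.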

Tests used:
Assay in all cases: NCI tumour cell line growth inhibition, 48 h
786-0 renal = system: 786-0 renal
A498 renal = system: A498 renal
A549 NSCLC = system: A549 NSCLC
ACHN renal = system: ACHN renal
BT-549 breast = system: BT-549 breast
CAKI-1 renal = system: CAKI-1 renal
CCRF-CEM leukemia = system: CCRF-CEM leukemia
COLO 205 colon = system: COLO 205 colon
DU-145 prostate = system: DU-145 prostate
EKVX NSCLC = system: EKVX NSCLC
HCC-2998 colon = system: HCC-2998 colon
HCT-116 colon = system: HCT-116 colon
HCT-15 colon = system: HCT-15 colon
HL-60(TB) leukemia = system: HL-60(TB) leukemia
HOP-62 NSCLC = system: HOP-62 NSCLC
HOP-92 NSCLC = system: HOP-92 NSCLC
HS 578T breast = system: HS 578T breast
HT29 colon = system: HT29 colon
IGROV1 ovarian = system: IGROV1 ovarian
KM12 colon = system: KM12 colon
LOX IMVI melanoma = system: LOX IMVI melanoma
M14 melanoma = system: M14 melanoma
MALME-3M melanoma = system: MALME-3M melanoma
MCF7 breast = system: MCF7 breast
MDA-MB-231 breast = system: MDA-MB-231 breast
MDA-MB-435 = system: MDA-MB-435
MDA-N = system: MDA-N
MOLT-4 leukemia = system: MOLT-4 leukemia
NCI-H226 lung = system: NCI-H226 lung
NCI-H23 lung = system: NCI-H23 lung
NCI-H460 lung = system: NCI-H460 lung
NCI-H522 lung = system: NCI-H522 lung
NCI/ADR-RES ovarian = system: NCI/ADR-RES ovarian
OVCAR-3 ovarian = system: OVCAR-3 ovarian
OVCAR-4 ovarian = system: OVCAR-4 ovarian
OVCAR-5 ovarian = system: OVCAR-5 ovarian
OVCAR-8 ovarian = system: OVCAR-8 ovarian
PC-3 prostate = system: PC-3 prostate
RPMI-8226 leukemia = system: RPMI-8226 leukemia
RXF 393 renal = system: RXF 393 renal
SF-268 CNS = system: SF-268 CNS
SF-295 CNS = system: SF-295 CNS
SF-539 CNS = system: SF-539 CNS
SK-MEL-2 melanoma = system: SK-MEL-2 melanoma
SK-MEL-28 melanoma = system: SK-MEL-28 melanoma
SK-MEL-5 melanoma = system: SK-MEL-5 melanoma
SK-OV-3 ovarian = system: SK-OV-3 ovarian
SN12C renal = system: SN12C renal
SNB-19 CNS = system: SNB-19 CNS
SR leukemia = system: SR leukemia
SW-620 colon = system: SW-620 colon
T-47D breast = system: T-47D breast
TK-10 renal = system: TK-10 renal
U251 CNS = system: U251 CNS
UACC-257 melanoma = system: UACC-257 melanoma
UACC-62 melanoma = system: UACC-62 melanoma
UO-31 renal = system: UO-31 renal
K-562 leukemia = system: K-562 leukemia
SNB-75 CNS = system: SNB-75 CNS

Measured: TGI

O=C1c2ccc(O)cc2OC(c2cc(O)c(O)c(O)c2)C1O (stereo not drawn)
> 100 µM: A549 NSCLC | CAKI-1 renal | DU-145 prostate | HCC-2998 colon | HCT-15 colon | HOP-62 NSCLC | HOP-92 NSCLC | HS 578T breast | M14 melanoma | MALME-3M melanoma | NCI-H226 lung | NCI-H23 lung | OVCAR-3 ovarian | OVCAR-4 ovarian | OVCAR-5 ovarian | PC-3 prostate | RXF 393 renal | SF-268 CNS | SK-MEL-2 melanoma | SK-MEL-28 melanoma | SK-MEL-5 melanoma | SK-OV-3 ovarian | SNB-19 CNS | UACC-257 melanoma | UACC-62 melanoma | UO-31 renal
67.1 µM: KM12 colon
43.9 µM: HT29 colon
43.2 µM: MDA-MB-435
51.7 µM: MOLT-4 leukemia
38.5 µM: LOX IMVI melanoma
48 µM: BT-549 breast
69.3 µM: TK-10 renal
48.4 µM: HL-60(TB) leukemia
45.4 µM: 786-0 renal
85.9 µM: T-47D breast
58.7 µM: NCI-H522 lung
39.5 µM: NCI-H460 lung
48.7 µM: U251 CNS
83.3 µM: COLO 205 colon
51.9 µM: MCF7 breast
70.3 µM: SW-620 colon
52.9 µM: NCI/ADR-RES ovarian
48.6 µM: RPMI-8226 leukemia
39.3 µM: EKVX NSCLC
39.9 µM: SF-295 CNS
38.4 µM: OVCAR-8 ovarian
34 µM: MDA-N
41 µM: HCT-116 colon
52.7 µM: SF-539 CNS
55.9 µM: CCRF-CEM leukemia
48.9 µM: ACHN renal
36.6 µM: SN12C renal
56.5 µM: SR leukemia
39.7 µM: MDA-MB-231 breast
39.1 µM: IGROV1 ovarian
73.5 µM: A498 renal

C=CC(=O)NC(O)(C(=O)OCC)C(F)(F)F (stereo not drawn)
> 100 µM: A549 NSCLC | ACHN renal | BT-549 breast | CAKI-1 renal | CCRF-CEM leukemia | COLO 205 colon | DU-145 prostate | EKVX NSCLC | HCC-2998 colon | HCT-116 colon | HCT-15 colon | HL-60(TB) leukemia | HOP-62 NSCLC | HOP-92 NSCLC | HS 578T breast | HT29 colon | IGROV1 ovarian | K-562 leukemia | KM12 colon | LOX IMVI melanoma | M14 melanoma | MALME-3M melanoma | MCF7 breast | MDA-MB-231 breast | MDA-MB-435 | MDA-N | MOLT-4 leukemia | NCI-H226 lung | NCI-H23 lung | NCI-H522 lung | NCI/ADR-RES ovarian | OVCAR-3 ovarian | OVCAR-4 ovarian | OVCAR-5 ovarian | OVCAR-8 ovarian | PC-3 prostate | RPMI-8226 leukemia | RXF 393 renal | SF-268 CNS | SF-295 CNS | SF-539 CNS | SK-MEL-2 melanoma | SK-MEL-28 melanoma | SK-MEL-5 melanoma | SK-OV-3 ovarian | SN12C renal | SNB-19 CNS | SNB-75 CNS | SR leukemia | SW-620 colon | T-47D breast | TK-10 renal | U251 CNS | UACC-257 melanoma | UACC-62 melanoma | UO-31 renal
